# Measurements published in patent publication US11903992B2, “Composition comprising lidocaine, l-carnosine and dexpanthenol” (Cellix Bio Private Limited, priority 2021, dated 2024).
# Experiments:
# [1] = Stability observations during development of the formulation; assay type: physicochemical; settings: during development of the oral rinse formulation
# Description: In an embodiment, the composition is formulated as an oral rinse formulation. It could also be noted during development of the formulation that L-Carnosine tends to increase the pH of the composition to about 8.5, which tend to increase the degradation of lidocaine. […] During the experimentation, it could be noted that presence of a buffer (e.g. a citrate buffer) and an anti-oxidant (e.g. sodium metabisulfite) in the composition, while maintaining pH of the resultant composition/formulation around 6.5±1 (i.e. ranging from about 5.5 to about 7.5), preferably at 6.5±0.5 and more preferably, at 6.5±0.2 affords dramatic improvement in the shelf life of the composition/formulation.
# [2] = pH of the formulation (pH meter); assay type: physicochemical; settings: during development of the formulation; tends to increase degradation of lidocaine
stability observation of the ingredient [1],pH of the composition as increased by L-Carnosine [2],Structure (SMILES)
requires neutral pH for stability,–,CC(C)(CO)[C@@H](O)C(=O)NCCCO [Dexpanthenol]
sensitive to oxygen tend to degrade,about 8.5,NCCC(=O)N[C@@H](Cc1cnc[nH]1)C(=O)O [L-Carnosine]
